Assay [1] concerns human prostate cancer ALVA-41 cells. In words: survival rate of cells (Cell Counting Kit-8), ALVA-41 cells. It is filed as cell-based. To be noted: ALVA-41 cells, 20 hours, neutral pH, 10-100 μg/ml. As to the method:
The survival rate of cells was measured by Cell Counting Kit-8 in accordance with a manufacturer's manual. The method will be described briefly as follows. A 96-well (each 100 μl) plate was inoculated with cells (1×10^4 cells) and incubated for 24 hours, and the cells were incubated in a non-serum culture medium Opti-MEM together with a given concentration of each cathepsin purified from rat stomach (References #27 and #60-#62). Thereafter, the kit reagent (10 μl) was added to each well and the wells were incubated for another 1 hour. After incubation, each well was measured at the absorbance of 450 nm with a microplate reader.
In the figure, an indicating bar scale represents 50 μm. […] In the figure, an indicating bar scale represents 50 μm.
In this experiment, the survival rate of the ALVA-41 cells was measured by incubating the cells with cathepsin E of a given concentration in the presence or absence of pepstatin A (100 μM) at 37° C. and pH 7.4 for 20 hours. The data is represented as a percentage with respect to the value for non-treated cell group. The data were obtained as an average value±SD from the data obtained by four separate experiments. […] In this experiment, the HEK293 cells were incubated together with a given concentration of natural cathepsin E, wild-type recombinant and the active site mutant (D98A/D283A) at 37° C. and pH 7.4 for 20 hours. The survival rate of the cells was measured and represented as a percentage with respect to the value of the non-treated cell group. The data represents an average value±SD from the data obtained by four separate experiments. In the value, *p<0.001 is a corresponding value for the cells treated with the mutant. […] In this experiment, ALVA-41 cells were treated solely with cathepsin E of a given concentration in the same manner as for FIG. 2A and the culture supernatant was recovered, followed by centrifuging to remove the precipitate and transferring a portion ([…]) of the supernatant to a freshly prepared culture of ALVA-41 cells. Thereafter, the cells were incubated at 37° C. and pH 7.4 for 20 hours in the absence (black round mark) or presence (white round mark) of pepstatin A (100 μM) and measured for the survival rate of the cells. The cell survival rate is represented as a percentage with respect to the value of the cells treated with the culture supernatant of the ALVA-41 cells treated with physiological saline. The data is represented as an average value±SD from the data obtained by four separate experiments. […] The cathepsin E activity (on the upper panel) and the cytotoxic activity (on the lower panel) of each column fraction were determined using freshly prepared ALVA-41 cells and a cathepsin E-specific substrate. The cell survival rate of each fraction treated with the protein at a given final concentration is represented as a percentage with respect to the value of the cells treated with physiological saline and as an average value±SD from the data obtained by four separate experiments. The cathepsin E activity is represented as a percentage of the total activity in the culture supernatant, and the data is represented as an average±SD from the data obtained by three separate experiments.
In general terms: Formazan colour is commonly taken as a measure of viable cells.

Assay [2] has as its system TRAIL. The assay can be described thus: ELISA of TRAIL in culture supernatant of ALVA-41 cells. In kind it is cell-based, human. The conditions noted are these: ALVA-41 cells treated with cathepsin E 100 μg/ml, 20 hours. As to the method:
ALVA-41 cells (1×10^6 cells per a 6-cm dish) were incubated together with cathepsin E (100 μg/ml) in a non-serum culture medium Opti-MEM at 37° C. for 20 hours. The resulting culture supernatant was measured for amounts of TRAIL, FasL and TNF-α with ELSA kit in a manner as will be described briefly. A sample and a standard product (each 100 μl) were added to a microtiter plate immobilized with a monoclonal antibody to the corresponding member of the TNF family and incubated at room temperature for 2 hours. Then, the wells of the microtiter plate were washed four times with a washing buffer and 100 μl of biotin-conjugated monoclonal antibody was added to each wells of the plate, following by incubation at room temperature for 1 hour and washing the wells of the plate completely. Then, they were incubated together with 100 μl of streptoavidin-conjugated horseradish peroxidase at room temperature for 30 minutes and washed four times with a washing buffer. […] After an addition of a reaction terminating solution, the wells were measured at 450 nm with microreader.
In this experiment, the ALVA-41 cells were treated with cathepsin E (100 μg/ml) or physiological saline at 37° C. and pH 7.4 for 20 hours and measured for the amounts of TNF-α, FasL and TRAIL in the culture supernatant by ELSA. […] Apoptosis of the ALVA-41 cells was measured using the culture supernatant after immunoprecipitation. […]
A general note: ELISA stands for enzyme-linked immunosorbent assay.

As to cathepsin E, the “number of living cells” value in assay [1] was “decreases the number of survived carcinoma cells in a dose-dependent fashion”. In addition, the “TRAIL in culture supernatant” value in assay [2] is recorded as “apparently secreted”.

These data come from patent US20100047227A1, “NOVEL ANTICANCER CATHEPSIN FORMULATIONS AND ANTICANCER AGENT FOR USE IN COMBINED ANTICANCER THERAPY” (priority 2006, published 2010).
